Source: US20080187492A1, “Drosophila Models For Diseases Affecting Learning and Memory” (priority 2004, published 2008)

What was measured:
Format in all cases: in vivo, Drosophila melanogaster
[1] = test system: Rescue flies; experiment: Short-term memory (60 mins) with mated female targets, Rescue flies
Experimental: (§1) Effects of drug treatment on short-term memory (60 mins) in flies lacking dfmr1 activity with mated female targets. Short-term (60 min.) memory was measured in Rescue and FS flies that were either fed control food or underwent various drug treatments as described below. Short-term memory was measured by placing a trained male in a holding chamber for 60 minutes (after being trained for one hour with a previously mated female), then subsequently placing him in a testing chamber with a mated female target for a ten-minute courtship interval (C.I.). This C.I. was compared to the C.I. obtained for naïve courtship of a previously mated female, i.e., C.I. during the first 10 minutes of the training session with a previously mated female. Additionally, for reference the C.I. during the last 10 minutes of the training period was also determined. Numbers of flies are indicated above each bar for all groups. The levels of significance are indicated as follows; *=p<0.05; **=p<0.005; ***=p<0.0001.
(§2) Restoration of short-term memory with mGluR antagonists. To establish that the failure to observe memory was not due to a problem with recognizing or processing the appropriate cues from the virgin female target, we used a modified version of the conditioned courtship paradigm where the male is paired with a mated female target subsequent to training (Kane et al., 1997; Joiner and Griffith, 1997; Joiner and Griffith, 1999; Kamashev et al., 1999). Again, with pharmacologic treatment it is necessary to utilize more then one compound to confirm the specificity of the target, so in this case we used four mGluR antagonists. […] It is also important to note that the robust deficit in synaptic plasticity in FS flies, with regard to memory, is a critical extension of the previous models of Fragile X syndrome in model organisms, since this is one of the most prominent aspects of the human disorder. Furthermore, we have shown that antagonism of the mGluRs can restore synaptic plasticity in the Drosophila model of Fragile X syndrome.

[2] = test system: FS (dFMR1-3+frame shifted rescue fragment) flies; experiment: Conditioned courtship: short-term memory at 60 minutes, virgin female target, FS flies
Experimental: (§3) Short-term memory. The model was further extended to encompass short-term memory at 60 minutes after training. After the one hour training session with a previously mated female, the female is removed and the male is placed in a holding chamber for 60 minutes, then subsequently placed in a testing chamber with a virgin female target to assess short-term memory (FIG. 4C). […] CT-CT FS flies court just as vigorously at 60 minutes after training as naive CT-CT FS flies. […] The FS groups that were treated with MPEP in development alone, adulthood alone or in both development and adulthood display experience dependent reduction of courtship activity at 60 minutes after training when compared to group matched naives M-M FS, p<0.0001, CT-M FS, p<0.0001 and M-CT FS, p<0.0001. […] Additionally, flies were tested for ability to discriminate between virgin and previously mated females (FIG. 4D).
(§4) In order to examine short-term memory at 60 minutes after training, after the one hour training session with a previously mated female, the female is removed and the male is placed in a holding chamber for 60 minutes, then subsequently placed in a testing chamber with a virgin female (FIG. 9B). […] CT-CT FS flies court just as vigorously at 60 minutes after training as naive CT-CT FS flies. […] The FS groups that were treated with MPEP in development alone, adulthood alone or in both development and adulthood display experience dependent reduction of courtship activity at 60 minutes after training when compared to group matched naives M-M FS.

[3] = test system: FS (dFMR1-3+frame shifted rescue fragment) flies; experiment: Naive courtship behavior (courtship index toward virgin female), FS flies
Text: (§5) Learning and memory (cognitive abilities) can be examined in Drosophila by utilizing several available learning and memory paradigms. The most popular is a classical conditioning paradigm in which the flies learn to associate electric shocks with olfactory cues (Dudia et al, 1976; Davis, 1993; Tully, 1994). An alternative paradigm to study learning and memory in Drosophila is called conditioned courtship, wherein a male fly learns to modify his courtship behavior after experience with an unreceptive female; it is a multi-sensory paradigm involving associations from more then one sensory input (Siegel and Hall, 1979; for review see Hall, 1994). It is a more complex associative learning paradigm and was utilized to assay learning and memory in this article to elucidate the role of dFMR1 in learning and memory (Tompkins et al, 1980; Tompkins et al, 1982; Tompkins et al, 1983; Tompkins et al, 1984; Ackerman and Siegel, 1986). Courting male flies perform a characteristic sequence of behaviors: orienting toward and following the female, tapping her with his forelegs, vibrating one or both wings, licking her genitalia, and attempting copulation (Sturtevant, 1915; Bastock and Manning, 1955; Bastock, 1956). These behaviors are repeated with some variation until successful copulation occurs. Virgin females will generally respond by mating; however, recently mated females will be unreceptive and will not allow copulation to occur (Spieth, 1974), they display different behaviors (Bastock and Manning, 1955; Connolly and Cook, 1973) and have an altered, although somewhat overlapping, pheromonal profile (Cobb and Ferveur, 1996). The naive male will find a previously mated female to have a pheromonal repertoire that is less provocative then that of a virgin female target. A naive male paired with a mated female will initially court her, but his courtship activity soon decreases; after 1 hour of experience with the mated female, his courtship when subsequently paired with a virgin female remains depressed for 2-3 hours (Siegel and Hall, 1979). This effect is not a general suppression of all courtship activity since a male's tendency to court an immature male is not suppressed (Gailey et al, 1984). […] These behaviors are quantified as a courtship index (CI) which is defined as the percentage of time a male fly spends performing any of the six courtship steps toward a target female in a ten minute test period. A decrease in CI after training with a previously mated female is indicative of behavioral plasticity in the form of learning or memory.
Since we use female targets that are not etherized (therefore they are freely moving), and the w118 and dfmr1-3 flies may have slightly impaired visual acuity due to lack of eye pigmentation, and since visual inputs affect courtship behavior, all subsequent experiments were done utilizing only the genotypes Rescue: dfmr1-3+wild type rescue fragment, and FS: dfmr1-3+frame shifted rescue fragment. Both of these genotypes have more pigmentation and similar levels of eye pigmentation to each other. For FIGS. 4 and 5, a high concentration of MPEP (1,000 μg/ml) was used. For the remainder of the experiments the food was either control (CT) or exactly the same control food containing the appropriate concentration of MPEP (M). The position of the CT and the M are indicative of the point at which the group was on the particular food. The first letter indicates the food type that the larvae grew up on, and the second letter denotes the food type that the adult flies were placed on within four hours of eclosion, […] fresh food.
Naive males were placed in the training chamber for one hour with no female, and then placed with a virgin target female for a ten-minute interval. The naive courtship behavior was reduced by high MPEP concentration in Rescue (p<0.0001) and FS (p<0.0005) lines, and it was depressed to similar levels by high MPEP treatment in the Rescue and FS groups (FIG. 2A). […]

[4] = test system: Rescue (dFMR1-3+wild type rescue fragment) flies; experiment: Naive courtship behavior (courtship index toward virgin female), Rescue flies; details: for naive courtship: 5 day old
Text: as §5
Since we use female targets that are not etherized (therefore they are freely moving), and the w118 and dfmr1-3 flies may have slightly impaired visual acuity due to lack of eye pigmentation, and since visual inputs affect courtship behavior, all subsequent experiments were done utilizing only the genotypes Rescue: dfmr1-3+wild type rescue fragment, and FS: dfmr1-3+frame shifted rescue fragment. Both of these genotypes have more pigmentation and similar levels of eye pigmentation to each other. For FIGS. 4 and 5, a high concentration of MPEP (1,000 μg/ml) was used. For the remainder of the experiments the food was either control (CT) or exactly the same control food containing the appropriate concentration of MPEP (M). The position of the CT and the M are indicative of the point at which the group was on the particular food. The first letter indicates the food type that the larvae grew up on, and the second letter denotes the food type that the adult flies were placed on within four hours of eclosion, and for the four following days, until the day before testing when they were placed on fresh food.
In order to determine if MPEP can get into the Drosophila central nervous system (CNS) through feeding behavior, we mixed MPEP into the food at a concentration of 1,000 μg/ml ([…]). Males were raised on CT food and then placed on either CT or M food. […]

[5] = test system: FS flies lacking dfmr1 activity; experiment: Short-term memory (60 mins) with mated female targets, FS flies
Experimental: as §1, §2

[6] = test system: Rescue (dFMR1-3+wild type rescue fragment) flies; experiment: Conditioned courtship: short-term memory at 60 minutes, virgin female target, Rescue flies; details: 5 day old; MPEP (20 μg/ml), NaCl (5 and 50 mM), LY341495 (400 nM)
Experimental: as §3, §4

[7] = 86 μM MPEP, 400 nM LY341495, 573 μM MPPG, 348 μM MTPG
[8] = 5 day old, 8.6 mM MPEP, 400 nM LY341495

SMILES | short-term memory, mated female target [1, 7] | memory at 60 minutes post training, mated female target [1, 8] | short-term memory ([2]; 20-day-old, concentration not given) | naive courtship activity ([3]; 5 day old adults, 573 mM MPPG (p<0.0001) or 348 μM MTPG (p<0.005)) | naive courtship activity ([4]; 5 day old adults, 573 mM MPPG or 348 μM MTPG, p<0.0001 for both) | short-term memory, mated female target [5, 7] | memory at 60 minutes post training, mated female target [5, 8] | short term memory ([2]; 5 day old, NaCl (5 and 50 mM)) | naive courtship ([3]; 5 day old, NaCl at 5 or 50 mM in food) | naive courtship ([4]; LiCl 5 mM, NaCl 5 mM in food) | naive courtship ([4]; LiCl 50 mM, NaCl 50 mM in food) | short term memory [6]
CC(N)(C(=O)O)c1ccc(P(=O)(O)O)cc1 (racemic) [MPPG, (RS)-alpha-methyl-4-phosphoonophenylglycine] | demonstrated intact short-term memory | demonstrate memory at 60 minutes post training | rescue short-term memory | significant increase in courtship activity | significant decrease in courtship activity | demonstrated restoration of short-term memory | demonstrate memory at 60 minutes post training |  |  |  |  | 
[Cl-].[Na+] [NaCl] |  |  |  |  |  |  |  | had no effect | did not restore naive courtship | did not suppress naive courtship | suppressed naive courtship | did not affect short term memory
